Measurements reported in patent US20110021621A1, “Drug for treating circulatory insufficiency” (ACTIVUS PHARMA CO., LTD., priority 2005, published 2011).
Structures can show the parent of a compound that is named as a salt. Where two headings read alike, the source gives them in different places.

Legend:
[1] = test system: circulatory insufficiency model of rats induced by injection of lauric-acid into their femoral artery; experiment: Circulatory insufficiency model induced by lauric-acid in rats (lesion index); type: in vivo, rat; set-up: key: summed toe lesion grades, +5 if heel reached; max 25 points; details: male Wistar rats, average, max 25 points
Procedure: We performed this test in order to evaluate the pharmacological effect of the compounds of the present invention using a circulatory insufficiency model of rats induced by injection of lauric-acid into their femoral artery.
13-week-old male Wistar rats (body weight is 280 to 316 g), 8 rats per one group, were used. The rats were held in a supine position under anesthesia due to administration of 40 mg/kg of sodium pentobarbital by intraperitoneal injection. Then, the right femoral area was incised, thereby injecting 0.15 mL of 10 mg/mL lauric-acid solution into the femoral artery in order to induce lower limb gangrene caused by the peripheral vascular disorder. A few drops of instant adhesive (Aron-alpha; registered trademark) were used to stop bleeding, followed by topical application of antibiotics (potassium penicillin G solution) to prevent infection, and the incision site was then sutured.
The suspension was administered, by means of multiple oral dosing, 1 hour prior to and 3 hours after injection of lauric-acid and twice daily (at 10:00 and 17:00) for the following 9 days, at the dose of 30 mg/kg for each compound. […] The suspension was administered orally 3 hours prior to injection of lauric-acid at the dose of 300 mg/kg.
The extent of lesions was evaluated 3 days and 10 days after injection of lauric acid by the following criteria:
The lesion of each toe was graded and the total points of 5 toes were use as a lesion index, wherein 5 points were further added when the lesion reached the heel (i.e. the maximum lesion index was 25 points).
The shown number refers to the average value of the lesion index obtained from the evaluation.

[2] = test system: bleeding time in male SD rats; experiment: Effect on bleeding time in rats (tail cutting); details: 30 mg/kg oral, max observation 60 min
Procedure: (§1) 5-week-old male SD rats (body weight is 138 to 152 g), 6 rats per one group, were used. […] 50 minutes after the administration, 50 mg/kg of pentobarbital sodium was intraperitoneally injected into the rat.
(§2) 10 minutes later, the tail was cut off at a position of 2 mm from the tip using a surgical blade, and was immediately immersed into a glass container (Magnus bath) filled with physiological saline maintained at approximately 37° C. to observe until the rat stopped bleeding.
(§3) The bleeding time was taken as the time from the tail cutting to the cessation of bleeding. The tail was marked at a position of 5 cm from the tip in advance, and was immersed in the physiological saline in the glass container at the depth of 5 cm from the surface. The maximum observation time was defined as 60 minutes after the tail cutting.

[3] = test system: bleeding time in male SD rats; details: rat, in vivo, po
Procedure: as §1, §2, §3

[4] = Stability test in acidic or basic solution (half-life by liquid chromatography); type: physicochemical; details: time to 50% residual rate; for Half-life, pH 3.4 solution: phosphate buffer pH 3.4; for Half-life, pH 3.4 solution / Half-life, pH 7.3 solution: 1 mmoL/L, 37° C.; for Half-life, pH 7.3 solution: phosphate buffer pH 7.3
Procedure: The test compounds were dissolved in an acidic solution (phosphate buffer (pH3.4)) and in a basic solution (phosphate buffer (pH7.3)) at the concentration of 1 mmoL/L. Immediately after they were dissolved, each solution was analyzed with liquid chromatography using an acidic solution (phosphate buffer (pH3.4)) or basic solution (phosphate buffer (pH7.3)) as an eluent. The peak area of the test compounds was measured as the initial value. Furthermore, a time-course analysis with liquid chromatograpy was conducted to measure the peak area at each time point. The solution containing the test compound was kept in an incubator at 37° C. Based on the measured peak area of the test compounds, the percentage (%) of the peak area at each measurement time point was calculated, taking the peak area of the initial value as 100(%). The half-life (the time to show a 50% residual rate of the test compounds) of the test compounds was further calculated, and its stability was evaluated based on the half-life.

[5] = Bioabsorption: plasma concentration measurement in rats with oral administration; type: in vivo, rat; details: for concentration at 0.25 h: read-out: plasma concentration, Mean, time point 0.25 h; for concentration at 0.5 h: read-out: plasma concentration, Mean, time point 0.5 h; for concentration at 1 h: read-out: plasma concentration, Mean, time point 1.0 h; for concentration at 2 h: read-out: plasma concentration, Mean, time point 2.0 h; for concentration at 4 h: read-out: plasma concentration, Mean, time point 4.0 h; for concentration at 6 h: read-out: plasma concentration, Mean, time point 6.0 h; for concentration at 8 h: read-out: plasma concentration, Mean, time point 8.0 h; for AUC: read-out: AUC (area under the plasma concentration-time curve); for Cmax: read-out: Cmax (maximum plasma concentration); for Tmax: read-out: Tmax (time required to reach the maximum plasma concentration)
Procedure: We conducted a plasma concentration measurement in rats with oral administration to compare the absorption of the compound of the present invention (compound No. 451) with the comparative compound A and B.
6-week-old male SD rats (body weight is 200 to 230 g) were used for this test (3 rats per one group). The required amount of test compound was weighed and pulverized in an agate mortar. Then, a 0.5 (w/v) % methyl cellulose solution was added to prepare the suspension at the concentration of 10 mg/5 mL. 5 mL per kg body weight of the suspension was orally administered to rats once using a feeding tube for rats. About 0.3 mL of blood was sampled from the caudal vein using a heparinized glass tube at 0.25, 0.5, 1, 2, 4, 6, 8, 12 and 24 hours after the administration, and was centrifuged to obtain plasma.
30 μL of methanol and 300 µL of acetonitrile were added to 120 μL of the obtained plasma, and mixed with a Vortex mixer for 15 seconds. The sample was centrifuged to obtain 300 μL of the supernatant. The supernatant was dried, and 120 μL of an eluent was added thereto, and then mixed with a Vortex mixer for 15 seconds. After the mixture was centrifuged, the amount of each test compound remaining in the plasma was determined with liquid chromatography.
40 μL of the sample, as prepared above, was applied to liquid chromatography with the following conditions to conduct the measurement.
• Column: InertsiL (registered trademark) ODS-3 4.6 mmI.D.×250 mm; • Column temperature: 40° C.; • Eluent: Solution A (10 mmoL/L ammonium acetate:methanol=50:50), and Solution B (10 mmoL/L ammonium acetate:methanol=10:90); • Gradient condition (eluent composition): solution A→20 min.→solution B (5 min. elution)→1 min.→solution A (12 min. elution); • Flow rate: 1.0 mL; and • Detection wavelength: 314 nm.
• Column: InertsiL (registered trademark) ODS-3 4.6 mmI.D.×150 mm; • Column temperature: 40° C.; • Eluent: Solution A (aqua:methanol:acetic acid=90:10:0.5), and Solution B (aqua:methanol:acetic acid=10:90:0.5); • Gradient condition (eluent composition): solution A→20 min.→solution B (5 min. elution)→1 min.→solution A (12 min. elution); • Flow rate: 1.0 mL; and • Detection wavelength: 323 nm.
• Column: InertsiL (registered trademark) ODS-3 4.6 mmI.D.×150 mm; • Column temperature: 40° C.; • Eluent: Solution A (pH=2.2 phosphate buffer:acetonitrile=90:10), and Solution B (pH=2.2 phosphate buffer:acetonitrile=10:90); • Gradient condition (eluent composition): Solution A→10 min.→Solution B (2.5 min. elution)→0.5 min.→Solution A (9 min. elution); • Flow rate: 2.0 mL; and
Detection wavelength: 315nm.
Based on the peak area obtained in the liquid chromatography analysis with respect to 1 μg/mL of each test compound in plasma, the plasma concentration (μg/mL) at each time point was calculated.

[6] = 30 mg/kg multiple oral dosing (1 h prior to and 3 h after lauric-acid, then twice daily for 9 days), 10 days after lauric-acid injection
[7] = 30 mg/kg multiple oral dosing (1 h prior to and 3 h after lauric-acid, then twice daily), 3 days after lauric-acid injection
[8] = 60 min between oral dosing and the tail cutting
[9] = 180 min between oral dosing and the tail cutting
[10] = phosphate buffer pH 3.4, 37° C., read-out: Half-life, pH 3.4 solution (converted)
[11] = phosphate buffer pH 7.3, 37° C., read-out: Half-life, pH 7.3 solution (converted)
[12] = male, SD, rat, plasma, 10 mg/kg, 0.25 h
[13] = male, SD, rat, plasma, 10 mg/kg, 0.5 h
[14] = male, SD, rat, plasma, 10 mg/kg, 1.0 h
[15] = male, SD, rat, plasma, 10 mg/kg, 2.0 h
[16] = male, SD, rat, plasma, 10 mg/kg, 4.0 h
[17] = male, SD, rat, plasma, 10 mg/kg, 6.0 h
[18] = male, SD, rat, plasma, 10 mg/kg, 8.0 h
[19] = male, SD, rat, plasma, 10 mg/kg, from administration to 24 hours
[20] = male, SD, rat, plasma, 10 mg/kg

CCCCCCOc1c(O)c2ccc(OCCO)cc2oc1=O [Compound 445]
Lesion Index after 10 days [1, 6]: 7.5
Lesion Index after 3 days [1, 7]: 2.7
Bleeding time [2, 8]: 9.1 min
Bleeding time [2, 9]: 8.3 min

CC#CCC(C)[C@H](O)/C=C/[C@@H]1[C@H]2c3cccc(CCCC(=O)O)c3O[C@H]2C[C@H]1O (mixture of isomers) [beraprost sodium]
Bleeding time ([3]; 1 mg/kg, 60 min): 42.2 min

CCCCCCCCOc1c(O)c2ccc(OCCC(=O)O)cc2oc1=O [Compound 525]
Lesion Index after 10 days [1, 6]: 7.8
Lesion Index after 3 days [1, 7]: 2.9
Half-life, pH 3.4 solution [4]: >>100 hr
Half-life, pH 7.3 solution [4]: >>100 hr
Bleeding time [2, 8]: 8.5 min
Bleeding time [2, 9]: 8.1 min

CCCCCCCCOc1c(O)c2ccc(OCCO)cc2oc1=O [Compound 451]
Lesion Index after 10 days [1, 6]: 7.2
Lesion Index after 3 days [1, 7]: 2.6
Half-life, pH 3.4 solution [4]: >>100 hr
Half-life, pH 7.3 solution [4]: >>100 hr
Cmax (maximum plasma concentration) [5]: 25.1 ± 13.3 µg/mL
Tmax (time required to reach the maximum plasma concentration) [5]: 18 ± 6 min
plasma concentration, Mean, time point 0.25 h ([5]; 0.25 h): 23.6 µg/mL
plasma concentration, Mean, time point 0.5 h ([5]; 0.5 h): 23.6 µg/mL
plasma concentration, Mean, time point 1.0 h ([5]; 1.0 h): 17.9 µg/mL
plasma concentration, Mean, time point 2.0 h ([5]; 2.0 h): 11.8 µg/mL
plasma concentration, Mean, time point 4.0 h ([5]; 4.0 h): 9.2 µg/mL
plasma concentration, Mean, time point 6.0 h ([5]; 6.0 h): 6.8 µg/mL
plasma concentration, Mean, time point 8.0 h ([5]; 8.0 h): 3.0 µg/mL
plasma concentration, Mean, time point 12.0 h ([5]; 12.0 h): 1.2 µg/mL
plasma concentration, Mean, time point 24.0 h ([5]; 24.0 h): 0.5 µg/mL
AUC (area under the plasma concentration-time curve) ([5]; from administration to 24 hours): 99.5 ± 64.4 µg·h/mL
Bleeding time [2, 8]: 7.8 min
Bleeding time [2, 9]: 7.5 min

CC(=O)Oc1ccccc1C(=O)O [aspirin]
Bleeding time ([3]; 100 mg/kg, 60 min): 40.2 min

CCOc1c(O)c2ccc(OC)cc2oc1=O [Compound 144]
Lesion Index after 10 days [1, 6]: 7.2
Lesion Index after 3 days [1, 7]: 2.5
Bleeding time [2, 8]: 8.9 min
Bleeding time [2, 9]: 8.2 min

O=C1CCc2cc(OCCCCc3nnnn3C3CCCCC3)ccc2N1 [cilostazol]
Bleeding time ([3]; 300 mg/kg, 60 min): 50.1 min

O=c1oc2ccccc2c(O)c1O [comparative compound A]
half-life at 1 mmoL/L [4, 10]: 1.25 days
half-life at 1 mmoL/L [4, 11]: 2.71 days
plasma concentration, Mean, time point 12.0 h ([5]; 12.0 h): Not detected
plasma concentration, Mean, time point 24.0 h ([5]; 24.0 h): Not detected
concentration at 0.25 h [5, 12]: 600 ng/mL
concentration at 0.5 h [5, 13]: 300 ng/mL
concentration at 1 h [5, 14]: 300 ng/mL
concentration at 2 h [5, 15]: 300 ng/mL
concentration at 4 h [5, 16]: 300 ng/mL
concentration at 6 h [5, 17]: 300 ng/mL
concentration at 8 h [5, 18]: 200 ng/mL
AUC [5, 19]: 2200 ± 100 ng·h/mL
Cmax [5, 20]: 600 ± 100 ng/mL
Tmax [5, 20]: 15 min

Clc1ccccc1CN1CCc2sccc2C1 [ticlopidine hydrochloride, reference compound]
Lesion Index after 3 days ([1]; positive control, 300 mg/kg orally 3 hours prior to lauric-acid injection, 3 days after injection): 2.8
Lesion Index after 10 days ([1]; positive control, 300 mg/kg orally 3 hours prior to lauric-acid injection, 10 days after injection): 7.4
Bleeding time ([3]; 300 mg/kg, 180 min): 36.1 min

CCCCCCOc1c(O)c2ccc(O)cc2oc1=O [Compound 125]
Lesion Index after 10 days [1, 6]: 8.1
Lesion Index after 3 days [1, 7]: 2.6
Half-life, pH 3.4 solution [4]: >>100 hr
Half-life, pH 7.3 solution [4]: >>100 hr
Bleeding time [2, 8]: 8.0 min
Bleeding time [2, 9]: 8.4 min

O=c1oc2ccc(Cl)cc2c(O)c1O [B]
half-life at 1 mmoL/L [4, 10]: 2.21 days
half-life at 1 mmoL/L [4, 11]: 2.92 days
concentration at 0.25 h [5, 12]: 7400 ng/mL
concentration at 0.5 h [5, 13]: 4100 ng/mL
concentration at 1 h [5, 14]: 2000 ng/mL
concentration at 2 h [5, 15]: 1400 ng/mL
concentration at 4 h [5, 16]: 300 ng/mL
concentration at 6 h [5, 17]: 100 ng/mL
concentration at 8 h [5, 18]: 100 ng/mL
concentration at 12 h ([5]; male, SD, rat, plasma, 10 mg/kg, 12.0 h, read-out: plasma concentration, Mean, time point 12.0 h): 0 ng/mL
concentration at 24 h ([5]; male, SD, rat, plasma, 10 mg/kg, 24.0 h, read-out: plasma concentration, Mean, time point 24.0 h): 0 ng/mL
AUC [5, 19]: 8300 ± 2600 ng·h/mL
Cmax [5, 20]: 7400 ± 200 ng/mL
Tmax [5, 20]: 15 min
